Assay results reported in publication PMC6225474, “Polypyridyl Zinc(II)-Indomethacin Complexes with Potent Anti-Breast Cancer Stem Cell Activity” (Molecules : A Journal of Synthetic Chemistry and Natural …, 2018).
Read-outs that look alike come from different tables or passages of the source.

Experiments:
HMLER cells [1] = conditions: MTT, 72 h incubation; cited from earlier work
HMLER-shEcad cells [2] = conditions: cited from earlier work; for IC50: MTT, 72 h incubation
[3] = test system: HMLER-shEcad mammospheres; parameters: method as in PMID 26865551; conditions: previous work; cited from earlier work
[4] = test system: HMLER-shEcad mammospheres; experiment: Mammosphere formation assay (number and size of mammospheres); format: cell-based, human; conditions: HMLER-shEcad cells in suspension, treated at respective IC20 value for 5 days
Protocol: (§1) On day 1, 5000 HMLER-shEcad cells were seeded into each well of a 96-well ultralow-attachment plate. The culture media used was MEGM with B27 (Invitrogen), 20 ng/mL EGF, and 4 μg/mL heparin (Sigma). Compounds of interest were added to the HMLER-shEcad cells at various concentrations (0–133 μM), and the suspensions were incubated for 5 days. On day 6, the mammospheres were imaged and counted using a standard microscope. Afterwhich, TOX8 (Sigma) (20 µL) was added to each well and incubated for 16 h. On day 7, the solutions in each well were transferred to a black 96-well plate and the fluorescence was measured using a plate reader, 590 nm (λex = 560 nm). The arbitrary fluorescence values were normalised with respect to control wells (containing DMSO), and dose–response curves were plotted to determine the IC50 values. Three independent experiments were carried out, with each concentration having three repeats […].

[5] = test system: HMLER-shEcad mammospheres; parameters: method as in PMID 26806362, PMID 27774561, PMID 28932846; conditions: 120 h incubation, read-out: Mammosphere IC50; cited from earlier work
HMLER cells [6] = experiment: MTT assay, bulk breast cancer cells (HMLER); format: cell-based, human; conditions: 72 h incubation
Protocol: (§2) HEK 293T human embryonic kidney cells purchased from American Type Culture Collection (ATCC, Manassas, VA, USA) were grown in DMEM (Dulbecco’s Modified Eagle’s Medium) with FBS (fetal bovine serum, 10%), and penicillin/streptomycin (1%). Human mammary epithelial CSC-depleted HMLER and human mammary epithelial CSC-enriched HMLER-shEcad cells were obtained from Prof. R.A. Weinberg (Whitehead Institute, MIT). These cells were grown in MEGM (Mammary Epithelial Cell Growth Medium) with BPE, hydrocortisone, hEGF, insulin, and gentamicin/amphotericin-B. All of the cells used in this study were cultured at 37 °C within a humidified incubator with a CO2 controller to maintin CO2 levels at 5%.
(§3) On day 1, 5000 cells (of the appropriate cell line) were plated in each well of a 96-well plate. The cells were then left to attach to the bottom of the wells overnight. On day 2, the compounds of interest were added (at different concentrations, 0.2–100 μM). The cells were incubated with the compounds for 72 h. The volume of each well at this stage was 200 μL. If DMSO was used to aid solubilization of the compounds, then the same amount of DMSO was also present in control wells. […] The absorption of each well was measured using a plate reader at 550 nm. […]

HMLER-shEcad cells [7] = experiment: MTT assay, breast CSC-like cells (HMLER-shEcad); format: cell-based, human; conditions: 72 h incubation
Protocol: as §2, §3

HEK 293T cells = experiment: MTT assay, human embryonic kidney (HEK 293T) cells; format: cell-based; conditions: for IC50: MTT, 72 h incubation
Protocol: as §2
On day 1, 5000 cells (of the appropriate cell line) were plated in each well of a 96-well plate. The cells were then left to attach to the bottom of the wells overnight. On day 2, the compounds of interest were added (at different concentrations, 0.2–100 μM). The cells were incubated with the compounds for 72 h. The volume of each well at this stage was 200 μL. If DMSO was used to aid solubilization of the compounds, then the same amount of DMSO was also present in control wells. On day 5, a solution of 3-(4,5-dimethylthiazol-2-yl)-2,5-diphenyltetrazolium bromide (MTT) (4 mg/mL) predissolved in PBS was added to each well of the 96-well plate (20 μL). After a further 4 h incubation, the media/MTT solution was removed and the resultant purple formazan crystals were dissolved in DMSO (200 μL). The absorption of each well was measured using a plate reader at 550 nm. The absorption values were normalised according to the control wells and dose—response curves were plotted to determine the IC50 values. Three independent experiments were carried out, with each concentration having six repeats (n = 18).

[8] = test system: HMLER-shEcad mammospheres; experiment: Mammosphere viability assay (TOX8); format: cell-based, human; conditions: TOX8, 5 days (120 h) incubation
Protocol: as §1

[9] = LogP by shake-flask method with UV-Vis spectroscopy; format: physicochemical; conditions: octanol/water, 100 µM, shaken 24 h, room temperature
Protocol: The shake-flask method in combination with UV-Vis spectroscopy was used to determine the LogP values of 2–5. Briefly, to a suspension of water (500 μL) and octanol (500 μL), 2–5 was added, giving a final concentration of 100 µM. The mixture was shaken for 24 h (room temperature). Using centrifugation, the water and octanol layers were separated and the concentration of 2–5 in each layer was determined using UV-Vis spectroscopy.

[10] = UV-Vis stability study in PBS:DMSO; format: physicochemical; conditions: 50 µM in PBS:DMSO (200:1), 24 h at 37 °C
Description: The shake-flask method was used to determine the lipophilicity (LogP) of 2–5. This involves determining the amount of a given compound partitioned between octanol and water using UV-Vis spectroscopy. […] The size of the polypyridyl ligand has a clear effect on lipophilicity, with LogP values increasing according to the following order; 2 < 3 < 4 < 5. The hydrophobicity of 2–5 implies that the zinc(II) complexes are likely to easily enter cells. […] The metal-perturbed π-π* and metal-to-ligand charge-transfer (MLCT) absorption bands of 2 (50 µM) in PBS:DMSO (200:1) were constant for 24 h at 37 °C (Figure S7), indicative of stability.

[11] = UV-Vis stability study in MEGM/DMSO; format: physicochemical; conditions: 50 µM in MEGM/DMSO (200:1), 24 h at 37 °C

Row | Compound | IC50 (HMLER cells [1]) [µM] | IC50 (HMLER-shEcad cells [2]) [µM] | IC50 (HMLER cells [6]) [µM] | IC50 (HMLER-shEcad cells [7]) [µM] | IC50 (HEK 293T cells) [µM] | IC50 [8] [µM] | LogP [9] | also measured
1 | N.N.O=C([O-])C1(C(=O)[O-])CCC1.[Pt+2] [carboplatin] | 67.3 ± 2.8 | 72.3 ± 7.9 | – | – | – | – | – | –
2 | N.N.[Cl][Pt][Cl] [cisplatin] | 3.4 ± 0.5 | 4.9 ± 0.4 | – | – | – | – | – | –
3 | COc1ccc2c(c1)c(CC(=O)O)c(C)n2C(=O)c1ccc(Cl)cc1 [indomethacin] | – | – | – | – | – | – | – | toxicity towards CSC-like cells (HMLER-shEcad cells [2]; previous work): non-toxic; mammosphere inhibitory effect [3]: poor
4 | CC[C@@H](C(=O)[C@@H](C)[C@@H](O)[C@H](C)[C@@H]1O[C@@H]([C@@H](CC)C(=O)O)CC[C@@H]1C)[C@H]1O[C@]2(C=C[C@@H](O)[C@]3(CC[C@@](C)([C@H]4CC[C@](O)(CC)[C@H](C)O4)O3)O2)[C@H](C)C[C@@H]1C [salinomycin] | 11.4 ± 0.4 | 4.2 ± 0.3 | – | – | – | – | – | decrease in mammospheres formed [4]: 37%; IC50 [5]: 18.5 ± 1.5 µM
5 | Zn(indomethacin)2(1,10-phenanthroline) [Compound 3] | – | – | 1.1 ± 0.05 | 1.1 ± 0.08 | 2.3 ± 0.1 | 44.1 ± 0.6 | 0.97 | –
6 | Zn(indomethacin)2(2,2′-bipyridine) [Compound 2] | – | – | 1.2 ± 0.02 | 0.7 ± 0.04 | 20 ± 3.9 | > 133 | 0.89 | fold less potent toward HEK 293T cells than HMLER and HMLER-shEcad cells (HEK 293T cells; ratio of IC50 values, p < 0.05): up to 17 fold; stability: metal-perturbed π-π* and MLCT absorption bands [10]: constant; stability: UV-Vis absorption bands [11]: unaltered
